“And” between values parts separate entries of the source, which are not always exact repeats. Equal values may be shown once. Read-outs that look alike come from different tables or passages of the source.
Legend:
Assay type in all cases: in vivo
Triticum aestivum = tested on: Triticum aestivum
Method: (§1) A plastic cup with a diameter of 8 cm and a depth of 6.5 cm was filled with soil. Seeds of wheat (Triticum aestivum) and one or more kinds of test plant selected from Alopecurus myosuroides, Lolium multiflorum, Setaria viridis, Sinapis arvensis and Stellaria media were sowed in the cup, and then grown in a greenhouse until Triticum aestivum was grown in the second to third leaf stage. Then, a test dilution containing predetermined amounts of the present compound, a compound selected from Group A and a compound selected from Group B was sprayed onto the whole plants uniformly. The test dilution was prepared by dissolving a predetermined amount of each compound in a 2% solution of Tween 20 (polyoxyethylene sorbitan fatty acid ester, MP Biomedicals, Inc.) in dimethylformamide and then diluting the solution with water, and then mixing the respective water dilutions thus obtained of the present compound, a compound selected from Group A and a compound selected from Group B. After the spray treatment, the plants were grown in a greenhouse for 21 days.

Alopecurus myosuroides = experiment: Test Example 1: greenhouse spray test, herbicidal effect on Alopecurus myosuroides
Method: as §1, with “days. The herbicidal effect was rated in 101 levels from 0 (no effect) to 100 (complete death).” for “days.”

Lolium multiflorum = experiment: Test Example 1: greenhouse spray test, herbicidal effect on Lolium multiflorum
Method: as §1

Stellaria media = experiment: Test Example 1: greenhouse spray test, herbicidal effect on Stellaria media
Method: as §1

Sinapis arvensis = experiment: Test Example 1: greenhouse spray test, herbicidal effect on Sinapis arvensis
Method: as §1, with “days. The herbicidal effect was rated in 101 levels from 0 (no effect) to 100 (complete death).” for “days.”

Setaria viridis = experiment: Test Example 1: greenhouse spray test, herbicidal effect on Setaria viridis
Method: as §1, with “days. The herbicidal effect was rated in 101 levels from 0 (no effect) to 100 (complete death).” for “days.”

[1] = amount of chemical 6.3 g/ha, 21 days after spray, scale 0 (no effect) to 100 (complete death)
[2] = amount of chemical 5 g/ha, 21 days after spray, scale 0 (no effect) to 100 (complete death)
[3] = Lolium multiflorum, 504 h, amount of chemical 6.3 g/ha, 21 days after spray, scale 0 (no effect) to 100 (complete death), read-out: herbicidal effect on Lolium multiflorum
[4] = amount of chemical 0.1 g/ha, 21 days after spray, scale 0 (no effect) to 100 (complete death)
[5] = amount of chemical 0.2 g/ha, 21 days after spray, scale 0 (no effect) to 100 (complete death)
[6] = amount of chemical 0.25 g/ha, 21 days after spray, scale 0 (no effect) to 100 (complete death)
[7] = amount of chemical 20 g/ha, 21 days after spray, scale 0 (no effect) to 100 (complete death)
[8] = amount of chemical 25 g/ha, 21 days after spray, scale 0 (no effect) to 100 (complete death)
[9] = amount of chemical 3.1 g/ha, 21 days after spray, scale 0 (no effect) to 100 (complete death)
[10] = Lolium multiflorum, 504 h, read-out: herbicidal effect on Lolium multiflorum
[11] = amount of chemical 200 g/ha, 21 days after spray, scale 0 (no effect) to 100 (complete death)

CCOC(=O)Oc1c(C)nn(C)c(=O)c1-c1c(C)cc(C)cc1CC [I-b-35]
herbicidal effect on Triticum aestivum (Triticum aestivum; amount of chemical 25 g/ha): 10
herbicidal effect on Alopecurus myosuroides (Alopecurus myosuroides; amount of chemical 25 g/ha): 50

COc1c(Cl)ccc(Cl)c1C(=O)O [Dicamba]
pest or weed control at 50 g/ha (Lolium multiflorum; Lolium multiflorum, 504 h, amount of chemical 50 g/ha): 0%

COc1nc(C)nc(NC(=O)NS(=O)(=O)c2ccccc2Cl)n1 [Chlorsulfuron]
herbicidal effect on Alopecurus myosuroides (Alopecurus myosuroides; amount of chemical 1 g/ha): 0

CCc1cc(C)cc(C)c1-c1c(O)c(C)nn(C)c1=O [I-a-18]
herbicidal effect on Triticum aestivum (Triticum aestivum; [1]): 5
herbicidal effect on Lolium multiflorum (Lolium multiflorum; [1]): 60
herbicidal effect on Stellaria media (Stellaria media; [1]): 5

CCc1cc(CC)c(-c2c(O)c(C)nn(C)c2=O)c(CC)c1 [I-a-17]
herbicidal effect on Triticum aestivum (Triticum aestivum; [2]): 5
herbicidal effect on Lolium multiflorum (Lolium multiflorum; [2]): 10
herbicidal effect on Sinapis arvensis (Sinapis arvensis; [2]): 30

CCOC(=O)c1nc(C(Cl)(Cl)Cl)n(-c2ccc(Cl)cc2Cl)n1 [Fenchlorazole-ethyl, fenchlorazole-ethyl]
pest or weed control at 5 g/ha (Lolium multiflorum; Lolium multiflorum, 504 h, amount of chemical 5 g/ha, 21 days after spray, scale 0 (no effect) to 100 (complete death)): 0%
pest or weed control at 6.3 g/ha (Lolium multiflorum; [3]): 0%
herbicidal effect on Sinapis arvensis (Sinapis arvensis; [2]): 0
herbicidal effect on Sinapis arvensis (Sinapis arvensis; amount of chemical 6.3 g/ha): 0
herbicidal effect on Setaria viridis (Setaria viridis; amount of chemical 6.3 g/ha): 0

O=C(O)c1nc(Cl)ccc1Cl [Clopyralid]
herbicidal effect on Triticum aestivum (Triticum aestivum; amount of chemical 100 g/ha): 0
herbicidal effect on Alopecurus myosuroides (Alopecurus myosuroides; amount of chemical 100 g/ha): 0

COc1ncc(F)c2nc(S(=O)(=O)Nc3c(F)cccc3F)nn12 [Florasulam, florasulam]
herbicidal effect on Triticum aestivum (Triticum aestivum; amount of chemical 0.1 g/ha): 0
herbicidal effect on Triticum aestivum (Triticum aestivum; [4]): 0
herbicidal effect on Triticum aestivum (Triticum aestivum; [5]): 0
herbicidal effect on Lolium multiflorum (Lolium multiflorum; amount of chemical 0.1 g/ha): 0
herbicidal effect on Lolium multiflorum (Lolium multiflorum; [4]): 0
herbicidal effect on Lolium multiflorum (Lolium multiflorum; [5]): 0

O=C(O)COc1ccc(Cl)cc1Cl [2,4-D]
herbicidal effect on Triticum aestivum (Triticum aestivum; amount of chemical 25 g/ha): 0
herbicidal effect on Sinapis arvensis (Sinapis arvensis; amount of chemical 25 g/ha): 80
herbicidal effect on Setaria viridis (Setaria viridis; amount of chemical 25 g/ha): 0

COC(=O)c1ccccc1S(=O)(=O)NC(=O)N(C)c1nc(C)nc(OC)n1 [Tribenuron-methyl, tribenuron-methyl]
herbicidal effect on Triticum aestivum (Triticum aestivum; [6]): 0
pest or weed control at 0.25 g/ha (Lolium multiflorum; Lolium multiflorum, 504 h, amount of chemical 0.25 g/ha, 21 days after spray, scale 0 (no effect) to 100 (complete death)): 0%
herbicidal effect on Stellaria media (Stellaria media; [6]): 90 and 80

Cc1nn(C)c(O)c1C(=O)c1ccc(C(F)(F)F)cc1S(C)(=O)=O [Pyrasulfotole, pyrasulfotole]
herbicidal effect on Triticum aestivum (Triticum aestivum; [7]): 15
herbicidal effect on Lolium multiflorum (Lolium multiflorum; [7]): 0
herbicidal effect on Sinapis arvensis (Sinapis arvensis; [7]): 70

CCOC(=O)Oc1c(C)nn(C)c(=O)c1-c1c(CC)cc(C)cc1CC [I-b-18]
herbicidal effect on Triticum aestivum (Triticum aestivum; amount of chemical 25 g/ha): 10
herbicidal effect on Triticum aestivum (Triticum aestivum; [8]): 10
herbicidal effect on Lolium multiflorum (Lolium multiflorum; amount of chemical 25 g/ha): 30
herbicidal effect on Lolium multiflorum (Lolium multiflorum; [8]): 30
herbicidal effect on Stellaria media (Stellaria media; amount of chemical 25 g/ha): 5

Nc1c(Cl)c(F)nc(OCC(=O)O)c1Cl [Fluroxypyr]
herbicidal effect on Triticum aestivum (Triticum aestivum; [8]): 0
herbicidal effect on Alopecurus myosuroides (Alopecurus myosuroides; [8]): 0
herbicidal effect on Stellaria media (Stellaria media; [8]): 40

CCCCCC(C)OC(=O)COc1ccc(Cl)c2cccnc12 (stereo not drawn) [Cloquintocet-mexyl, cloquintocet-mexyl]
pest or weed control at 6.3 g/ha (Lolium multiflorum; [3]): 0%
herbicidal effect on Sinapis arvensis (Sinapis arvensis; [1]): 0
herbicidal effect on Alopecurus myosuroides (Alopecurus myosuroides; amount of chemical 6.3 g/ha): 0
herbicidal effect on Alopecurus myosuroides (Alopecurus myosuroides; [1]): 0
herbicidal effect on Stellaria media (Stellaria media; [1]): 0

COC(=O)c1ccccc1S(=O)(=O)NC(=O)Nc1nc(C)nc(OC)n1 [Metsulfuron-methyl, metsulfuron-methyl]
herbicidal effect on Triticum aestivum (Triticum aestivum; [4]): 0
pest or weed control at 0.1 g/ha (Lolium multiflorum; Lolium multiflorum, 504 h, amount of chemical 0.1 g/ha, 21 days after spray, scale 0 (no effect) to 100 (complete death)): 0%
herbicidal effect on Sinapis arvensis (Sinapis arvensis; [4]): 70

CCc1cc(C)cc(CC)c1-c1c(OC(C)=O)c(C)nn(C)c1=O [I-b-14]
herbicidal effect on Triticum aestivum (Triticum aestivum; [1]): 5
herbicidal effect on Lolium multiflorum (Lolium multiflorum; [1]): 70

CCc1cc(CC)c(-c2c(OC(=O)OC)c(C)nn(C)c2=O)c(CC)c1 [I-b-36]
herbicidal effect on Triticum aestivum (Triticum aestivum; amount of chemical 25 g/ha): 10
herbicidal effect on Alopecurus myosuroides (Alopecurus myosuroides; amount of chemical 25 g/ha): 50

COC(=O)c1sccc1S(=O)(=O)NC(=O)Nc1nc(C)nc(OC)n1 [Thifensulfuron-methyl, thifensulfuron-methyl]
herbicidal effect on Stellaria media (Stellaria media; amount of chemical 1 g/ha): 50

CCc1cc(C)cc(CC)c1-c1c(OC(=O)OC)c(C)nn(C)c1=O [I-b-25]
herbicidal effect on Triticum aestivum (Triticum aestivum; amount of chemical 25 g/ha): 5
herbicidal effect on Sinapis arvensis (Sinapis arvensis; amount of chemical 25 g/ha): 20
herbicidal effect on Setaria viridis (Setaria viridis; amount of chemical 25 g/ha): 95

CCOC(=O)C1=NN(c2ccc(Cl)cc2Cl)C(C)(C(=O)OCC)C1 (stereo not drawn) [Mefenpyr-diethyl, mefenpyr-diethyl]
herbicidal effect on Triticum aestivum (Triticum aestivum; [9]): 0
herbicidal effect on Triticum aestivum (Triticum aestivum; amount of chemical 6.3 g/ha): 0
herbicidal effect on Triticum aestivum (Triticum aestivum; [1]): 0
pest or weed control at 3.1 g/ha (Lolium multiflorum; [10]): 0%
pest or weed control at 6.3 g/ha (Lolium multiflorum; [10]): 0%
herbicidal effect on Lolium multiflorum (Lolium multiflorum; amount of chemical 6.3 g/ha): 0
herbicidal effect on Stellaria media (Stellaria media; [9]): 0
herbicidal effect on Stellaria media (Stellaria media; amount of chemical 6.3 g/ha): 0
herbicidal effect on Stellaria media (Stellaria media; [1]): 0

CCc1cc(C)cc(CC)c1-c1c(O)c(C)nn(C)c1=O [I-a-14, 4-(2,6-diethyl-4-methylphenyl)-5-hydroxy-2,6-dimethyl-3(2H)-pyridazinone]
pest or weed control at 25 g/ha (Lolium multiflorum; Lolium multiflorum, 504 h, amount of chemical 25 g/ha, 21 days after spray, scale 0 (no effect) to 100 (complete death)): 90%
herbicidal effect on Sinapis arvensis (Sinapis arvensis; [8]): 60
herbicidal effect on Alopecurus myosuroides (Alopecurus myosuroides; [8]): 90
herbicidal effect on Stellaria media (Stellaria media; [8]): 50

N#Cc1cc(Br)c(O)c(Br)c1 [Bromoxynil, bromoxynil]
herbicidal effect on Triticum aestivum (Triticum aestivum; [7]): 0
herbicidal effect on Triticum aestivum (Triticum aestivum; [11]): 5
pest or weed control at 20 g/ha (Lolium multiflorum; [10]): 0%
pest or weed control at 200 g/ha (Lolium multiflorum; [10]): 0%
herbicidal effect on Stellaria media (Stellaria media; [7]): 0
herbicidal effect on Stellaria media (Stellaria media; [11]): 10

— patent US20110319266A1, “HERBICIDAL COMPOSITION” (priority 2009, published 2011)
